Data reported in the supplement of paper PMC10307832.

Columns and labels:
Experiment in all cases: relative viability (nuclei count vs DMSO), 5 days (fraction); higher = more cells survive
Alpelisib + Pemetrexed = compound: Cc1nc(NC(=O)N2CCC[C@H]2C(N)=O)sc1-c1ccnc(C(C)(C)C(F)(F)F)c1 [Alpelisib] + Nc1nc2[nH]cc(CCc3ccc(C(=O)N[C@@H](CCC(=O)O)C(=O)O)cc3)c2c(=O)[nH]1 [Pemetrexed] (partner 0.2 µM)
Procedure, shortened: (§1)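 Lung cancer cell lines were seeded in 1536-well plates and dosed by pin tool the next day, with either a single drug or a fixed anchor-drug dose combined with five library-drug doses (not always all listed) spaced in √10 steps. Five days later, one step fixed the cells and stained their nuclei (final 0.05% Triton X-100, 1% formaldehyde, 1 ug/ml Hoechst), and nuclei were counted on 4× images. Relative viability is the nuclei count in treated wells divided by the count in vehicle wells, and each value is the median of duplicate plates.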

OSI-027 + Lapatinib = compound: COc1cccc2cc(-c3nc([C@H]4CC[C@H](C(=O)O)CC4)n4ncnc(N)c34)[nH]c12 [OSI-027] + CS(=O)(=O)CCNCc1ccc(-c2ccc3ncnc(Nc4ccc(OCc5cccc(F)c5)c(Cl)c4)c3c2)o1 [Lapatinib] (partner 2 µM)
Procedure, shortened: as §1

Alpelisib + Olaparib = compound: Cc1nc(NC(=O)N2CCC[C@H]2C(N)=O)sc1-c1ccnc(C(C)(C)C(F)(F)F)c1 [Alpelisib] + O=C(c1cc(Cc2n[nH]c(=O)c3ccccc23)ccc1F)N1CCN(C(=O)C2CC2)CC1 [Olaparib] (partner 8 µM)
Procedure, shortened: as §1

Alpelisib + Vorinostat = compound: Cc1nc(NC(=O)N2CCC[C@H]2C(N)=O)sc1-c1ccnc(C(C)(C)C(F)(F)F)c1 [Alpelisib] + O=C(CCCCCCC(=O)Nc1ccccc1)NO [Vorinostat] (partner 1 µM)
Procedure, shortened: as §1

How did the relative viability (Alpelisib + Pemetrexed; first compound 0.04 µM) turn out when UMC-11 was run?
The relative viability was 0.732.

What about the relative viability (Alpelisib + Pemetrexed; first compound 0.1265 µM) of the same cell line?
Its relative viability is 0.709.

And the relative viability (Alpelisib + Pemetrexed; first compound 0.4 µM)?
Its relative viability is 0.844.

And the relative viability (Alpelisib + Pemetrexed; first compound 1.265 µM)?
The relative viability was 0.699.

What about the relative viability (Alpelisib + Pemetrexed; first compound 4 µM) of the same cell line?
The relative viability was 0.692.

What about the relative viability (OSI-027 + Lapatinib; first compound 0.01 µM) of the same cell line?
Its relative viability is 0.934.

What about the relative viability (OSI-027 + Lapatinib; first compound 0.03162 µM) of the same cell line?
Its relative viability is 0.939.

And the relative viability (OSI-027 + Lapatinib; first compound 0.1 µM)?
Its relative viability is 0.805.

What about the relative viability (OSI-027 + Lapatinib; first compound 0.3162 µM) of the same cell line?
Its relative viability is 0.693.

And the relative viability (OSI-027 + Lapatinib; first compound 1 µM)?
The relative viability was 0.506.

What about the relative viability (Alpelisib + Olaparib; first compound 0.04 µM) of the same cell line?
The relative viability was 0.362.

What about the relative viability (Alpelisib + Olaparib; first compound 0.1265 µM) of the same cell line?
Its relative viability is 0.328.

And the relative viability (Alpelisib + Olaparib; first compound 0.4 µM)?
Its relative viability is 0.389.

And the relative viability (Alpelisib + Olaparib; first compound 1.265 µM)?
Its relative viability is 0.346.

And the relative viability (Alpelisib + Olaparib; first compound 4 µM)?
The relative viability was 0.315.

And the relative viability (Alpelisib + Vorinostat; first compound 0.04 µM)?
Its relative viability is 0.374.

And the relative viability (Alpelisib + Vorinostat; first compound 0.1265 µM)?
Its relative viability is 0.31.

What about the relative viability (Alpelisib + Vorinostat; first compound 0.4 µM) of the same cell line?
The relative viability was 0.403.

And the relative viability (Alpelisib + Vorinostat; first compound 1.265 µM)?
The relative viability was 0.344.

What about the relative viability (Alpelisib + Vorinostat; first compound 4 µM) of the same cell line?
The relative viability was 0.31.
